Experimental data from US20170137625A1, “ANTHRAQUINONE COMPOUND USED FOR COLOR FILTER OF LCD” (Dow Global Technologies LLC, priority 2014, published 2017).

Assays:
[1] = Thermal stability of films (chromaticity): ΔE before and after hard baking; format: physicochemical; conditions: for ΔEab after baking at 230° C. for 1 h: dye in alkaline soluble acrylic resin film on glass, hard baked at 230° C. under air for 1 h, CIE Lab, D65/10
Description: 1.15 g of alkaline soluble acrylic resin solution (MIPHOTO RPR4022, supplied from Miwan Commercial Co., Ltd., 40 wt % of solid content in methyl 3-methoxypropionate) was mixed with 1.73 g of PGMEA (60 wt %). 0.189 g of Dye 1 was mixed in the alkaline soluble resin/PGMEA solution and stirred for 2 hours at room temperature using a shaker. The solution was filtered through a 0.45 μm PTFE filter to remove large particles. Then the filtered solution was spin coated onto a clean glass substrate with 400 rpm spin speed for 18 seconds. The obtained film was first dried at 90° C. under air atmosphere for 30 minutes, and then hard baked at 230° C. under air atmosphere for 1 hour. The CIE values (xyY values and lab values) and the transmittance were measured before and after the hard bake.
(4) Thermal Stability of Films (Chromaticity):
The wet film after spin coating is dried in oven at 90° C. for 30 minutes and then soft baked at 150° C. for 15 minutes. The chromaticity coordinates (L, a, b) are recorded with UltraScan Pro (Hunterlab) colorimeter. D65/10 light source is used and results are based on CIE Lab coordinates. After that the film is hard baked at target temperature (230° C.) for 1 hour and the new chromaticity coordinates (L′, a′, b′) are recorded with the method above. The thermal stability of a film is indicated by the difference of chromaticity coordinate before and after hard baking represented by the following formula;
ΔE=√{square root over ((L−L′)^2+(a−a′)^2+(b−b′)^2)}

Solubility in PGMEA = format: physicochemical; conditions: for Solubility in PGMEA: solvent PGMEA (propylene glycol monomethyl ether acetate)
[2] = comparison in words, referring to Table 1

Structure (SMILES)	ΔEab after baking at 230° C. for 1 h [1]	Solubility in PGMEA (Solubility in PGMEA) [wt %]	thermal stability compared with the Comparative Examples [1, 2]	solubility in PEGMEA compared with the Comparative Examples (Solubility in PGMEA; [2])
Cc1cc(C)c(Nc2ccc(Nc3c(C)cc(O)cc3C)c3c2C(=O)c2ccccc2C3=O)c(C)c1 [(1-((4-hydroxy-2,6-dimethylphenyl)amino)-4-(mesitylamino)-anthraquinone]	6.8	3.0	–	–
C=CCN(CC=C)C(=O)COc1cc(C)c(Nc2ccc(Nc3c(C)cc(C)cc3C)c3c2C(=O)c2ccccc2C3=O)c(C)c1 [Dye 1, N,N-diallyl-acetamide modified anthraquinone]	2.1	6.2	significant improvement	significant improvement
CC(C)Nc1ccc(NC(C)C)c2c1C(=O)c1ccccc1C2=O [Solvent Blue 36]	33 (color almost	1.9	–	–
Cc1cc(C)c(Nc2ccc(Nc3c(C)cc(C)cc3C)c3c2C(=O)c2ccccc2C3=O)c(C)c1 [Solvent Blue 104, 1,4-bis(mesitylamino)anthraquinone]	7.9	0.6	–	–
